Data from patent US5840684A, “Glycopeptide antibiotic derivatives” (Eli Lilly and Company, priority 1995, dated 1998).
In brackets after ≈: the same amount, converted by molar mass.

Assays:
[1] = system: Staphylococcus aureus SA1199B; type: cell-based
Procedure: (§1) The MIC's were determined using a standard broth micro-dilution assay.

[2] = system: Entercoccus faecium 180-1; assay: broth micro-dilution MIC; type: cell-based
Procedure: as §1

[3] = system: Entercoccus faecium 276; assay: broth micro-dilution MIC; type: cell-based
Procedure: as §1

[4] = system: Staphylococcus aureus 446; assay: broth micro-dilution MIC; type: cell-based
Procedure: as §1

[5] = system: Staphylococcus aureus 447; assay: broth micro-dilution MIC; type: cell-based
Procedure: as §1

[6] = system: Staphylococcus aureus 491; assay: broth micro-dilution MIC; type: cell-based
Procedure: as §1

[7] = system: Staphylococcus aureus SA1199A; assay: broth micro-dilution MIC; type: cell-based
Procedure: as §1

[8] = system: Staphylococcus aureus SA1199; assay: broth micro-dilution MIC; type: cell-based
Procedure: as §1

[9] = system: Staphylococcus aureus X400; assay: broth micro-dilution MIC; type: cell-based
Procedure: as §1

[10] = system: Entercoccus faecium 180; assay: broth micro-dilution MIC; type: cell-based; details: Entercoccus faecium 180
Procedure: (§2) The formula I compounds have in vitro and in vivo activity against Gram-positive pathogenic bacteria. The MIC's were determined using a standard broth micro-dilution assay.

[11] = system: Enterococcus gallinarum 245; assay: broth micro-dilution MIC; type: cell-based; details: Enterococcus gallinarum 245
Procedure: as §2

[12] = system: Staphylococcus epidermidis 270; assay: broth micro-dilution MIC; type: cell-based
Procedure: as §2

[13] = system: Staphylococcus haemolyticus 105; assay: broth micro-dilution MIC; type: cell-based
Procedure: as §2

[14] = system: Staphylococcus haemolyticus 415; assay: broth micro-dilution MIC; type: cell-based
Procedure: as §2

[15] = system: vancomycin-resistant enterococci; assay: broth micro-dilution, mean geometric MIC; type: cell-based, Enterococcus faecium and Enterococcus faecalis; details: enterococci, 24-hour incubation
[16] = system: vancomycin-susceptible enterococci; assay: broth micro-dilution, mean geometric MIC; type: cell-based, Enterococcus faecium and Enterococcus faecalis; details: enterococci, 24-hour incubation
[17] = system: Staphylococcus aureus S13E; type: cell-based
Procedure: as §1

[18] = system: Staphylococcus aureus X778; assay: broth micro-dilution MIC; type: cell-based
Procedure: as §1

[19] = system: Streptococcus pyogenes C203; assay: broth micro-dilution MIC; type: cell-based
Procedure: as §1

[20] = system: Entercoccus faecium 2041; assay: broth micro-dilution MIC; type: cell-based; details: Entercoccus faecium 2041
Procedure: as §2

[21] = system: Streptococcus pneumoniae P1; assay: broth micro-dilution MIC; type: cell-based
Procedure: as §2

Structure (SMILES)	MIC [1] [µg/mL]	MIC [2] [µg/mL]	MIC [3] [µg/mL]	MIC [4] [µg/mL]	MIC [5] [µg/mL]	MIC [6] [µg/mL]	MIC [7] [µg/mL]	MIC [8] [µg/mL]	MIC [10] [µg/mL]	MIC [11] [µg/mL]	MIC [12] [µg/mL]	MIC [13] [µg/mL]	MIC [14] [µg/mL]	mean geometric MIC, Vancomycin Resistant Strains [15] [µg/mL]	mean geometric MIC, Vancomycin Sensitive Strains [16] [µg/mL]	MIC [17] [µg/mL]	MIC [18] [µg/mL]	MIC [19] [µg/mL]	MIC [20] [µg/mL]	MIC [21] [µg/mL]	other results
CNC(CC(C)C)C(=O)NC1C(=O)NC(CC(N)=O)C(=O)NC2C(=O)NC3C(=O)NC(C(=O)NC(C(=O)O)c4cc(O)cc(O)c4-c4cc3ccc4O)C(OC3CC(C)(N)C(O)C(C)O3)c3ccc(c(Cl)c3)Oc3cc2cc(c3OC2OC(CO)C(O)C(O)C2OC2CC(C)(NCCc3cccc(OCc4ccccc4)c3)C(O)C(C)O2)Oc2ccc(cc2Cl)C1O (stereo not shown) [Compound 69]	2 (≈ 1.11 µM)	≤ 0.06	0.5 (≈ 0.277 µM)	1 (≈ 0.555 µM)	1 (≈ 0.555 µM)	1 (≈ 0.555 µM)	≤ 0.06	1 (≈ 0.555 µM)	4 (≈ 2.22 µM)	8 (≈ 4.44 µM)	2 (≈ 1.11 µM)	4 (≈ 2.22 µM)	8 (≈ 4.44 µM)	13	0.44	–	–	–	–	–	MIC [9]: 0.5 µg/mL (≈ 0.277 µM)
CNC(CC(C)C)C(=O)NC1C(=O)NC(CC(N)=O)C(=O)NC2C(=O)NC3C(=O)NC(C(=O)NC(C(=O)O)c4cc(O)cc(O)c4-c4cc3ccc4O)C(OC3CC(C)(N)C(O)C(C)O3)c3ccc(c(Cl)c3)Oc3cc2cc(c3OC2OC(CO)C(O)C(O)C2OC2CC(C)(NCc3ccc4c(c3)CCO4)C(O)C(C)O2)Oc2ccc(cc2Cl)C1O (stereo not shown) [Compound 82]	1 (≈ 0.58 µM)	0.125 (≈ 0.0725 µM)	≤ 0.06	2 (≈ 1.16 µM)	4 (≈ 2.32 µM)	1 (≈ 0.58 µM)	0.5 (≈ 0.29 µM)	–	2 (≈ 1.16 µM)	0.125 (≈ 0.0725 µM)	4 (≈ 2.32 µM)	8 (≈ 4.64 µM)	8 (≈ 4.64 µM)	22	0.50	≤ 0.06	0.5 (≈ 0.29 µM)	≤ 0.06	0.5 (≈ 0.29 µM)	≤ 0.06	–
CNC(CC(C)C)C(=O)NC1C(=O)NC(CC(N)=O)C(=O)NC2C(=O)NC3C(=O)NC(C(=O)NC(C(=O)O)c4cc(O)cc(O)c4-c4cc3ccc4O)C(OC3CC(C)(N)C(O)C(C)O3)c3ccc(c(Cl)c3)Oc3cc2cc(c3OC2OC(CO)C(O)C(O)C2OC2CC(C)(NCc3cc(C)cc(C)c3)C(O)C(C)O2)Oc2ccc(cc2Cl)C1O (stereo not shown) [Compound 89]	1 (≈ 0.585 µM)	≤ 0.06	≤ 0.06	0.5 (≈ 0.292 µM)	1 (≈ 0.585 µM)	1 (≈ 0.585 µM)	≤ 0.06	0.5 (≈ 0.292 µM)	0.125 (≈ 0.0731 µM)	≤ 0.06	1 (≈ 0.585 µM)	1 (≈ 0.585 µM)	2 (≈ 1.17 µM)	11	0.44	–	–	≤ 0.06	≤ 0.06	≤ 0.06	–
CNC(CC(C)C)C(=O)NC1C(=O)NC(CC(N)=O)C(=O)NC2C(=O)NC3C(=O)NC(C(=O)NC(C(=O)O)c4cc(O)cc(O)c4-c4cc3ccc4O)C(OC3CC(C)(N)C(O)C(C)O3)c3ccc(c(Cl)c3)Oc3cc2cc(c3OC2OC(CO)C(O)C(O)C2OC2CC(C)(NCc3ccc(OC(C)=O)c(OC)c3)C(O)C(C)O2)Oc2ccc(cc2Cl)C1O (stereo not shown) [Compound 99]	0.5 (≈ 0.282 µM)	≤ 0.06	–	0.5 (≈ 0.282 µM)	2 (≈ 1.13 µM)	1 (≈ 0.565 µM)	0.5 (≈ 0.282 µM)	0.5 (≈ 0.282 µM)	–	32 (≈ 18.1 µM)	1 (≈ 0.565 µM)	8 (≈ 4.52 µM)	32 (≈ 18.1 µM)	72	0.76	0.5 (≈ 0.282 µM)	0.5 (≈ 0.282 µM)	–	–	–	–
CNC(CC(C)C)C(=O)NC1C(=O)NC(CC(N)=O)C(=O)NC2C(=O)NC3C(=O)NC(C(=O)NC(C(=O)O)c4cc(O)cc(O)c4-c4cc3ccc4O)C(OC3CC(C)(N)C(O)C(C)O3)c3ccc(c(Cl)c3)Oc3cc2cc(c3OC2OC(CO)C(O)C(O)C2OC2CC(C)(NCC34CC5CC(CC(C5)C3)C4)C(O)C(C)O2)Oc2ccc(cc2Cl)C1O (stereo not shown) [Compound 141]	2 (≈ 1.15 µM)	≤ 0.06	0.5 (≈ 0.287 µM)	2 (≈ 1.15 µM)	1 (≈ 0.574 µM)	0.5 (≈ 0.287 µM)	≤ 0.06	–	0.5 (≈ 0.287 µM)	4 (≈ 2.3 µM)	1 (≈ 0.574 µM)	1 (≈ 0.574 µM)	4 (≈ 2.3 µM)	8.0	–	–	0.5 (≈ 0.287 µM)	≤ 0.06	≤ 0.06	≤ 0.06	–
CNC(CC(C)C)C(=O)NC1C(=O)NC(CC(N)=O)C(=O)NC2C(=O)NC3C(=O)NC(C(=O)NC(C(=O)O)c4cc(O)cc(O)c4-c4cc3ccc4O)C(OC3CC(C)(N)C(O)C(C)O3)c3ccc(c(Cl)c3)Oc3cc2cc(c3OC2OC(CO)C(O)C(O)C2OC2CC(C)(NCc3ccc(N4CCOCC4)cc3)C(O)C(C)O2)Oc2ccc(cc2Cl)C1O (stereo not shown) [Compound 147]	≤ 0.06	2 (≈ 1.13 µM)	–	0.5 (≈ 0.283 µM)	–	≤ 0.06	≤ 0.06	0.5 (≈ 0.283 µM)	2 (≈ 1.13 µM)	–	–	1 (≈ 0.566 µM)	8 (≈ 4.53 µM)	–	1.3	1 (≈ 0.566 µM)	–	≤ 0.06	≤ 0.06	≤ 0.06	MIC [9]: 4 µg/mL (≈ 2.26 µM)
CNC(CC(C)C)C(=O)NC1C(=O)NC(CC(N)=O)C(=O)NC2C(=O)NC3C(=O)NC(C(=O)NC(C(=O)O)c4cc(O)cc(O)c4-c4cc3ccc4O)C(OC3CC(C)(N)C(O)C(C)O3)c3ccc(c(Cl)c3)Oc3cc2cc(c3OC2OC(CO)C(O)C(O)C2OC2CC(C)(NCc3ccc([S+]([O-])c4ccccc4)cc3)C(O)C(C)O2)Oc2ccc(cc2Cl)C1O (stereo not shown) [Compound 159]	≤ 0.06	≤ 0.06	–	0.5 (≈ 0.277 µM)	4 (≈ 2.21 µM)	2 (≈ 1.11 µM)	≤ 0.06	–	2 (≈ 1.11 µM)	8 (≈ 4.43 µM)	0.5 (≈ 0.277 µM)	16 (≈ 8.86 µM)	8 (≈ 4.43 µM)	27	0.50	1 (≈ 0.553 µM)	2 (≈ 1.11 µM)	≤ 0.06	–	≤ 0.06	MIC [9]: 4 µg/mL (≈ 2.21 µM)
CNC(CC(C)C)C(=O)NC1C(=O)NC(CC(N)=O)C(=O)NC2C(=O)NC3C(=O)NC(C(=O)NC(C(=O)O)c4cc(O)cc(O)c4-c4cc3ccc4O)C(OC3CC(C)(N)C(O)C(C)O3)c3ccc(c(Cl)c3)Oc3cc2cc(c3OC2OC(CO)C(O)C(O)C2OC2CC(C)(NCc3ccc4c(c3)CCCC4)C(O)C(C)O2)Oc2ccc(cc2Cl)C1O (stereo not shown) [Compound 168]	1 (≈ 0.576 µM)	≤ 0.06	–	≤ 0.06	≤ 0.06	0.5 (≈ 0.288 µM)	≤ 0.06	0.5 (≈ 0.288 µM)	0.25 (≈ 0.144 µM)	2 (≈ 1.15 µM)	–	0.5 (≈ 0.288 µM)	2 (≈ 1.15 µM)	3.4	0.10	≤ 0.06	0.5 (≈ 0.288 µM)	≤ 0.06	≤ 0.06	≤ 0.06	MIC [9]: ≤ 0.06 µg/mL
CNC(CC(C)C)C(=O)NC1C(=O)NC(CC(N)=O)C(=O)NC2C(=O)NC3C(=O)NC(C(=O)NC(C(=O)O)c4cc(O)cc(O)c4-c4cc3ccc4O)C(OC3CC(C)(N)C(O)C(C)O3)c3ccc(c(Cl)c3)Oc3cc2cc(c3OC2OC(CO)C(O)C(O)C2OC2CC(C)(NCc3ccc(NC(=O)c4ccc(F)cc4)cc3)C(O)C(C)O2)Oc2ccc(cc2Cl)C1O (stereo not shown) [Compound 193]	–	≤ 0.06	≤ 0.06	0.5 (≈ 0.275 µM)	≤ 0.06	≤ 0.06	≤ 0.06	–	≤ 0.06	1 (≈ 0.55 µM)	–	0.5 (≈ 0.275 µM)	1 (≈ 0.55 µM)	2	0.072	≤ 0.06	≤ 0.06	≤ 0.06	≤ 0.06	≤ 0.06	–
